How the values were obtained:
B2 bradykinin receptor = target: T1, B2 bradykinin receptor (Homo sapiens, UniProt P30411); type: cell membranes, Membrane; conditions: chem-1; also: in other assays of this panel Not Active means under 50% inhibition at 10 µM
T1 sequence (P30411 whole entry): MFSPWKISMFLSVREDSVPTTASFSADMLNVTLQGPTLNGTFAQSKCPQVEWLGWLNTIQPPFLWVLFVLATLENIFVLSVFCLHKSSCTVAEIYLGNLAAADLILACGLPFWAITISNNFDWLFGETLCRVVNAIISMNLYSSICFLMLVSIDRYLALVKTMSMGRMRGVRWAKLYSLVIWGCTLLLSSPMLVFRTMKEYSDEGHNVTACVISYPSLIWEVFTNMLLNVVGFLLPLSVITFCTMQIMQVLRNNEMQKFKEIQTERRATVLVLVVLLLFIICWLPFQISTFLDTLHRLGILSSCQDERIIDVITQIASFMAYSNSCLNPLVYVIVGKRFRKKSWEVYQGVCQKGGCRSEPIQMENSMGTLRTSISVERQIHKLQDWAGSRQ

[1] = DRUGMATRIX: Purinergic P2X radioligand binding (ligand: [3H] alpha, beta-Methylene-ATP); type: cell membranes, Oryctolagus cuniculus, New Zealand albino, Urinary bladder, Membrane; conditions: Not Active = under 50% inhibition at 10 µM
[2] = target: T2, Alpha-1D adrenergic receptor (Homo sapiens, UniProt P25100); type: cell membranes, HEK293, Membrane; conditions: hek293; also: in other assays of this panel Not Active means under 50% inhibition at 10 µM
T2 sequence (P25100 whole entry): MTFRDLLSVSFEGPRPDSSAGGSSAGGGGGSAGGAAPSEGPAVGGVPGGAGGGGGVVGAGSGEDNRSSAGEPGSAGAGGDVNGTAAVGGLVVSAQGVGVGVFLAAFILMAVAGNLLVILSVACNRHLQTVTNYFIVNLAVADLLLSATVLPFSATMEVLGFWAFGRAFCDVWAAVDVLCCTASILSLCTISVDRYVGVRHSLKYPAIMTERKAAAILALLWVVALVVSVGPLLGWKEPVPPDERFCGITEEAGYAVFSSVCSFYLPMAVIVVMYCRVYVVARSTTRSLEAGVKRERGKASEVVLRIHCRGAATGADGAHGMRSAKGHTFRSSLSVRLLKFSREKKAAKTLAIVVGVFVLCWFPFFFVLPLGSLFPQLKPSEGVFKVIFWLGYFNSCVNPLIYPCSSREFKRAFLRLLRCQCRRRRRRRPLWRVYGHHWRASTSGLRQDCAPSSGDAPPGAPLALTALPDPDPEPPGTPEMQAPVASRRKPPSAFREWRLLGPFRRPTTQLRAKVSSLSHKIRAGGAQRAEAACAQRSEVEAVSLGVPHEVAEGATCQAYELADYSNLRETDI

[3] = DRUGMATRIX: Serotonin (5-Hydroxytryptamine) 5-HT3 radioligand binding (ligand: [3H] GR-65630); type: cell membranes, Membrane; conditions: hek293; Not Active = under 50% inhibition at 10 µM
Vasopressin V1a receptor = Vasopressin V1a receptor (Homo sapiens, UniProt P37288); type: cell membranes, Membrane; conditions: hek293; also: in other assays of this panel Not Active means under 50% inhibition at 10 µM
[4] = DRUGMATRIX: Nicotinic Acetylcholine radioligand binding (ligand: [125I] Epibatidine); type: cell membranes, Membrane; conditions: imr-32; Not Active = under 50% inhibition at 10 µM
[5] = DRUGMATRIX: Phosphodiesterase PDE3 enzyme inhibition (substrate: [3H]cAMP + cAMP); type: tissue-based, Homo sapiens; conditions: platelet; Not Active = under 50% inhibition at 10 µM
Cytochrome P450 2C19 = Cytochrome P450 2C19 (Homo sapiens, UniProt P33261); conditions: bti-tn-5b1-4; also: in other assays of this panel Not Active means under 50% inhibition at 10 µM
Cytochrome P450 2C19, sequence (P33261 whole entry): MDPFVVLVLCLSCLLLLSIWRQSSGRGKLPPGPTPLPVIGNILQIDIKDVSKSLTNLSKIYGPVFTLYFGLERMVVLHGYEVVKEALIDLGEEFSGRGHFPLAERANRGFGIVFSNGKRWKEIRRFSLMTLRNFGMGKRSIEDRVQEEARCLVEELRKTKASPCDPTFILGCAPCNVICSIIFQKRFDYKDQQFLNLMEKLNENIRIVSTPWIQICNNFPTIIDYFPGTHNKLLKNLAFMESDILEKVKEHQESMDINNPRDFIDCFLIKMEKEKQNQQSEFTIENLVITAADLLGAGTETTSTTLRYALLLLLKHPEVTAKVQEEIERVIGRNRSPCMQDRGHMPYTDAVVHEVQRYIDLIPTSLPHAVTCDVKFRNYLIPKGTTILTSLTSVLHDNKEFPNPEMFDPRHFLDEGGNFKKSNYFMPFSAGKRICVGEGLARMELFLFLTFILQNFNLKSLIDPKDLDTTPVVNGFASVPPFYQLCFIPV

Vasopressin V1a receptor, sequence (P37288 whole entry): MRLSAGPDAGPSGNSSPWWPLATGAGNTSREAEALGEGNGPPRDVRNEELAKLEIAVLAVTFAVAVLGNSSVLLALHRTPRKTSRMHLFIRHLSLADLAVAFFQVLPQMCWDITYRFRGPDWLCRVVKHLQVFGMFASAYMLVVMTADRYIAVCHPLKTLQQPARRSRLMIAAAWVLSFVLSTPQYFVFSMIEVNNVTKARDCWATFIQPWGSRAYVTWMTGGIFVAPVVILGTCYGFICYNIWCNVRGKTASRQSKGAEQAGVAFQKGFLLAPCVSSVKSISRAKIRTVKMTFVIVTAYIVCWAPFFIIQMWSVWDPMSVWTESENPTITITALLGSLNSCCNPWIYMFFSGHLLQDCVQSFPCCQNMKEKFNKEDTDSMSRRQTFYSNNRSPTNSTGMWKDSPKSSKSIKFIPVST

C[C@H]1C[C@H]2[C@@H]3CCC4=CC(=O)C=C[C@]4(C)[C@@]3(Cl)[C@@H](O)C[C@]2(C)[C@@]1(O)C(=O)CO [BECLOMETHASONE]
Not Active: IC50 (B2 bradykinin receptor) | IC50 [1] | Ki [1] | IC50 [2] | IC50 [3] | Ki [3] | IC50 (Vasopressin V1a receptor) | IC50 [4] | Ki [4] | IC50 [5] | Ki [5] | IC50 (Cytochrome P450 2C19) | Ki (Cytochrome P450 2C19)

CCOC(=O)[C@H](CCc1ccccc1)N[C@H]1CCc2ccccc2N(CC(=O)O)C1=O [BENAZEPRIL]
Not Active: IC50 (B2 bradykinin receptor) | IC50 [1] | Ki [1] | IC50 [2] | IC50 [3] | Ki [3] | IC50 (Vasopressin V1a receptor) | IC50 [4] | Ki [4] | IC50 [5] | Ki [5] | IC50 (Cytochrome P450 2C19) | Ki (Cytochrome P450 2C19)

Nc1c(CC(=O)O)cccc1C(=O)c1ccc(Br)cc1 [BROMFENAC]
Not Active: IC50 (B2 bradykinin receptor) | IC50 [1] | Ki [1] | IC50 [2] | IC50 [3] | Ki [3] | IC50 (Vasopressin V1a receptor) | IC50 [4] | Ki [4] | IC50 [5] | Ki [5] | IC50 (Cytochrome P450 2C19) | Ki (Cytochrome P450 2C19)

CCCCN1CCCCC1C(=O)Nc1c(C)cccc1C.Cl (configuration not stated) [BUPIVACAINE HYDROCHLORIDE]
Not Active: IC50 (B2 bradykinin receptor) | IC50 [1] | Ki [1] | IC50 [2] | IC50 [3] | Ki [3] | IC50 (Vasopressin V1a receptor) | IC50 [4] | Ki [4] | IC50 [5] | Ki [5] | IC50 (Cytochrome P450 2C19) | Ki (Cytochrome P450 2C19)

C[C@@]12C(=O)OC(=O)[C@]1(C)[C@H]1CC[C@@H]2O1 [CANTHARIDIN]
Not Active: IC50 (B2 bradykinin receptor) | IC50 [1] | Ki [1] | IC50 [2] | IC50 [3] | Ki [3] | IC50 (Vasopressin V1a receptor) | IC50 [4] | Ki [4] | IC50 [5] | Ki [5] | IC50 (Cytochrome P450 2C19) | Ki (Cytochrome P450 2C19)

ClC(Cl)Cl [CHLOROFORM]
Not Active: IC50 (B2 bradykinin receptor) | IC50 [1] | Ki [1] | IC50 [2] | IC50 [3] | Ki [3] | IC50 (Vasopressin V1a receptor) | IC50 [4] | Ki [4] | IC50 [5] | Ki [5] | IC50 (Cytochrome P450 2C19) | Ki (Cytochrome P450 2C19)

C=C1CC[C@H](O)C/C1=C/C=C1\CCC[C@]2(C)[C@@H]([C@H](C)CCCC(C)C)CC[C@@H]12 [CHOLECALCIFEROL]
Not Active: IC50 (B2 bradykinin receptor) | IC50 [1] | Ki [1] | IC50 [2] | IC50 [3] | Ki [3] | IC50 (Vasopressin V1a receptor) | IC50 [4] | Ki [4] | IC50 [5] | Ki [5] | IC50 (Cytochrome P450 2C19) | Ki (Cytochrome P450 2C19)

C[N+](C)(C)CCO.[Cl-] [CHOLINE CHLORIDE]
Not Active: IC50 (B2 bradykinin receptor) | IC50 [1] | Ki [1] | IC50 [2] | IC50 [3] | Ki [3] | IC50 (Vasopressin V1a receptor) | IC50 [4] | Ki [4] | IC50 [5] | Ki [5] | IC50 (Cytochrome P450 2C19) | Ki (Cytochrome P450 2C19)

CC(=O)OCC(=O)[C@@]1(O)CC[C@H]2[C@@H]3CCC4=CC(=O)CC[C@]4(C)[C@H]3C(=O)C[C@@]21C [CORTISONE ACETATE]
Not Active: IC50 (B2 bradykinin receptor) | IC50 [1] | Ki [1] | IC50 [2] | IC50 [3] | Ki [3] | IC50 (Vasopressin V1a receptor) | IC50 [4] | Ki [4] | IC50 [5] | Ki [5] | IC50 (Cytochrome P450 2C19) | Ki (Cytochrome P450 2C19)

O=c1ccc2ccccc2o1 [COUMARIN]
Not Active: IC50 (B2 bradykinin receptor) | IC50 [1] | Ki [1] | IC50 [2] | IC50 [3] | Ki [3] | IC50 (Vasopressin V1a receptor) | IC50 [4] | Ki [4] | IC50 [5] | Ki [5] | IC50 (Cytochrome P450 2C19) | Ki (Cytochrome P450 2C19)

CN(C)/N=N/c1[nH]cnc1C(N)=O [DACARBAZINE]
Not Active: IC50 (B2 bradykinin receptor) | IC50 [1] | Ki [1] | IC50 [2] | IC50 [3] | Ki [3] | IC50 (Vasopressin V1a receptor) | IC50 [4] | Ki [4] | IC50 [5] | Ki [5] | IC50 (Cytochrome P450 2C19) | Ki (Cytochrome P450 2C19)

COc1ccc2c(c1)[C@]13CCCC[C@@H]1[C@H](C2)N(C)CC3 [DEXTROMETHORPHAN]
Not Active: IC50 (B2 bradykinin receptor) | IC50 [1] | Ki [1] | IC50 [2] | IC50 [3] | Ki [3] | IC50 (Vasopressin V1a receptor) | IC50 [4] | Ki [4] | IC50 [5] | Ki [5] | IC50 (Cytochrome P450 2C19) | Ki (Cytochrome P450 2C19)

CC(=O)Nc1c(I)c(NC(C)=O)c(I)c(C(=O)O)c1I [DIATRIZOIC ACID]
Not Active: IC50 (B2 bradykinin receptor) | IC50 [1] | Ki [1] | IC50 [2] | IC50 [3] | Ki [3] | IC50 (Vasopressin V1a receptor) | IC50 [4] | Ki [4] | IC50 [5] | Ki [5] | IC50 (Cytochrome P450 2C19) | Ki (Cytochrome P450 2C19)

COP(=O)(OC)OC=C(Cl)Cl [DICHLORVOS]
Not Active: IC50 (B2 bradykinin receptor) | IC50 [1] | Ki [1] | IC50 [2] | IC50 [3] | Ki [3] | IC50 (Vasopressin V1a receptor) | IC50 [4] | Ki [4] | IC50 [5] | Ki [5] | IC50 (Cytochrome P450 2C19) | Ki (Cytochrome P450 2C19)

Reference: ChEMBL document CHEMBL1909046, “DrugMatrix in vitro pharmacology data”
